We go through eight molecules from US10512641B2, “Chloroquine induction par-4 and treatment of cancer” (University of Kentucky Research Foundation, priority 2015, dated 2019).

For assay [1], the system named is Par-4. The experiment in a line: Par-4 secretion in wild type or p53-null MEFs, Western blot. Format: cell-based, mouse. To be noted: CQ 25 μM, Arylquin-1, Nutlin-3a 10 μM, 24 h. (In western blotting, separated proteins are transferred to a membrane and probed.)
The subject of assay [2] is Par-4. The following applies: Burikhanov et al. (2014); cited from earlier work.
The test system of assay [3] is Par-4. The experiment in a line: Par-4 in serum of renal cell carcinoma patients given HCQ, Western blot. The class given is in vivo, human. As for the experimental part: Serum samples were collected from renal cell carcinoma patients who were given safe oral doses (400 mg daily for 2-weeks) of HCQ pre-operatively at the University of Pittsburgh, as part of a clinical trial in 2010-2011. Pre-HCQ treatment and post-HCQ treatment serum samples were collected and frozen. In 2013-2014, they were processed by Western blot analysis.
(§1) Aliquots of pre-HCQ or post-HCQ treatment serum samples from the patient were transferred to cancer cell cultures (20% final concentration). After 24 h, the cells were scored for apoptosis by ICC for active caspase-3. Fetal bovine serum (FBS, 10%) was used as an additional control. An asterisk (*) indicates statistical significance (P<0.001) by the Student's t-test. […] Importantly, apoptosis of cancer cells by post-treatment serum from the patient was neutralized by the Par-4 antibody (P) or GRP78 antibody (G), but not by control antibody (C) (FIG. 2E).

For assay [4], the system named is cancer cells. The experiment in a line: Ex vivo apoptosis of cancer cells by post-HCQ patient serum. Format: cell-based, human. The following applies: PC-3, H460, HOP92, H1299; 20% serum, 24 h; relative to pre-HCQ serum. As for the experimental part:
as §1

For assay [5], the system named is Par-4. The experiment in a line: Par-4 secretion in conditioned medium of MEFs, Western blot. The class given is cell-based, mouse. The following applies: wild type (p53+/+) MEFs; CQ 1-100 μM, 24 h. The text has this:
(§2) The conditioned medium (CM), as well as the whole-cell lysates were subjected to Western blot analysis with the antibodies specific for Par-4, Collagen (Col1A1), albumin, or actin. Col1A1 served as a loading control for protein secretion, as it is generally unchanged in response to the treatments. The samples were also subjected to SDS/PAGE and Coomassie blue staining to determine albumin levels in serum from the CM as another loading control.

Assay [6] has as its system Par-4. The experiment in a line: Par-4 secretion in conditioned medium of normal human cells, Western blot. The following applies: normal human PrSC, PrEC, HEL, HBEC; CQ 1-100 μM, 24 h. Format: cell-based.
Excerpt: as §2

In assay [7] the test system is Par-4. The experiment in a line: Par-4 secretion in conditioned medium of prostate and lung cancer cell lines, Western blot. The class given is cell-based, human. To be noted: prostate cancer cells LNCaP, C4-2B, DU145, PC-3; CQ 1-100 μM, 24 h.
Excerpt: as §2

In assay [8] the test system is cancer cells. The experiment in a line: Apoptosis (ICC for active caspase-3) of cells exposed to CQ-treated MEFs or their CM. The class given is cell-based, human. As for the experimental part: After 24 h, the cells were subjected to immunocytochemistry (ICC) for active caspase-3 and apoptotic cells were scored under a fluorescent microscope.
After 24 h, the cells were scored for apoptosis.
A total of three independent experiments were performed; and approximately 500 cells were scored in each experiment for apoptosis under a fluorescent microscope.

A further assay deals with LLC1 cells. The experiment in a line: Apoptosis of LLC1 cells by CM from CQ-treated MEFs. Format: cell-based, mouse. The following applies: CQ 20 μM, 24 h; not with Par-4-/- MEFs.
In the next assay the test system is H460 or LLC1 cells. The experiment in a line: Subcutaneous H460 or LLC1 tumor xenografts in nude mice. To be noted: LLC1- or H460-derived flank tumors, CQ 25 mg/kg IP once daily. The class given is in vivo, mouse.
Another assay deals with UACA. The experiment in a line: UACA and NF-κB-regulated gene expression, Western blot. The class given is cell-based. To be noted: for expression of UACA: 24 h.
The test system of assay [9] is Par-4. The experiment in a line: Par-4 mRNA by qRT-PCR in MEFs. To be noted: CQ 25 μM, 24 h, normalized to GAPDH. Format: cell-based, mouse. The text has this:
The data were normalized relative to a GAPDH control. (see FIG. 8C).
(Quantitative PCR measures a nucleic acid by following its amplification.)

Assay [10] has as its system Par-4. The experiment in a line: Par-4 secretion in Rab8b-null and Rab8b reconstituted MEFs. Format: cell-based, mouse. The protocol:
(§3) Testing was performed to determine whether the expression of Rab genes containing putative p53 binding sites in their promoter region were essential for Par-4 secretion.

Another assay has as its system Rab8b. The experiment in a line: Rab8b and Rab8a expression (protein, real-time PCR). Format: cell-based. As for the experimental part: as §3
The guardian of the genome, p53 binds to a consensus motif 5′-PuPuPuC4(A/T)(A/T)G7PyPyPy

Assay [11] deals with Par-4. The experiment in a line: ICC analysis of Par-4 localization in Rab8b coated vesicles. The class given is cell-based. As for the experimental part:
An immunocytochemical (ICC) analysis was performed to determine the localization of Par-4 in Rab8b coated vesicles.

In assay [12] the test system is p53.
Assay [13] concerns p53. To be noted: MEFs, CQ 25 μM, 24 h.
In another assay the test system is A549 lung cancer cells. The following applies: A549 cells, 0, 2, 4 Gy, CQ 10 μM or 20 μM.
Assay [14] relates to Mel 1617 and Mel 1617BR melanoma cancer cells. The following applies: CQ 1 μM or 5 μM, 0 and 4 Gy.
The subject of assay [15] is Par-4. The experiment in a line: Par-4 secretion from MEFs treated with chloroquine, curcumin, ibuprofen or combinations. The class given is cell-based, mouse. To be noted: 24 h. The protocol: To determine whether curcumin or ibuprofen enhanced the secretion of Par-4 in cells treated with chloroquine, MEFs were treated with chloroquine (25 μM), curcumin (5 μM and 10 μM) or ibuprofen (500 μM or 750 μM) or combinations of chloroquine and curcumin or ibuprofen for 24 hours at 37° C.
The conditioned medium (CM), as well as the whole-cell lysates, were subjected to Western blot analysis with the antibodies specific for Par-4, Collagen (Col1A1), albumin, or actin. Col1A1 served as a loading control for protein secretion, as it is generally unchanged in response to the treatments. The samples were also subjected to SDS/PAGE and Coomassie blue staining to determine albumin levels in serum from the CM as another loading control.

In assay [16] the test system is Par-4. The experiment in a line: BFA sensitivity of CQ-induced Par-4 in MEFs. The class given is cell-based, mouse. The following applies: MEFs pre-treated with BFA 10 μg/ml 30 minutes, then CQ 50 μM 5 h.
Excerpt: (§4) The CM and lysates were examined by Western blot analysis with the indicated antibodies.

Excerpt for UACA: as §4

As for `CN(C)c1ccc2cc(-c3ccccc3F)c(N)nc2c1` [Arylquin-1], the Par-4 secretion entry with Par-4 [1] is “robust induction of Par-4 secretion”. Also, the “secretion of Par-4 from normal cells in mice” value (from here on “secretion … in mice”) in the assay on Par-4 [2] is reported as “can increase secretion of Par-4”.
Turning to `CCN(CCO)CCCC(C)Nc1ccnc2cc(Cl)ccc12` (stereo not drawn) [HCQ, hydroxychloroquine], the “induction of Par-4 in patient serum following HCQ treatment” value in the assay with Par-4 [3] (one renal cell carcinoma patient, HCQ 400 mg daily for 2 weeks) was about 3 fold. Besides, the “Par-4 levels in patient serum” value in the assay with Par-4 [3] (renal cell carcinoma patients, HCQ 400 mg daily oral for 2 weeks, post vs pre treatment) is on record as “elevated levels of Par-4 relative to pre-treatment levels”. For the same molecule, the “ex vivo apoptosis of cancer cells with post-HCQ treatment serum” value in the assay with cancer cells [4] is given as “underwent apoptosis”.
Take `CCN(CC)CCCC(C)Nc1ccnc2cc(Cl)ccc12` (stereo not drawn) [CQ, chloroquine diphosphate]: the “secretion of Par-4 in the CM” value in the assay with Par-4 [5] and in the assay on Par-4 [6] was “dose-dependent secretion of Par-4” in each case. For the same molecule, the Par-4 secretion result in the assay with Par-4 [7] is “neither induced Par-4 secretion”; in the assay with Par-4 [10] (Rab8b-null MEFs transfected with mouse Rab8b expression construct) it was “induced Par-4 secretion in Rab8b reconstituted cells”. The “apoptosis of Par-4-resistant cancer cells with CQ-treated Par-4+/+ MEFs” value with cancer cells [8] (DU145, A549 cells (internal control), CQ 20 μM) is on record as “resistant to apoptosis”. The “apoptosis of cancer cells co-cultured with CQ-treated Par-4+/+ MEFs” value with cancer cells [8] (PC-3, H460, H1299, HOP92, KP7B cells, CQ 20 μM, not with Par-4-/- MEFs) is listed as “sensitive to apoptosis”. The “cancer cell apoptosis by CM of CQ-treated Par-4+/+ MEFs” value in the assay on cancer cells [8] (inhibited by Par-4 antibody or GRP78 antibody) was “Cancer cell apoptosis was also induced”. In the assay with cancer cells [8] (normal HEL cells, CQ 20 μM), the “apoptosis of normal cells co-cultured with CQ-treated Par-4+/+ MEFs” value is listed as “not normal HEL cells”. In addition, the “apoptosis of LLC1 cells by CM from CQ-treated Par-4+/+ MEFs” value in the assay with LLC1 cells is listed as “induced apoptosis of LLC1 cells”. In the assay on H460 or LLC1 cells, the “growth of subcutaneous tumor xenografts (tumor volume)” value was “failed to inhibit the growth”. For the same molecule, the “expression of UACA” value in the assay with UACA (MEF and HEL, CQ 25 μM) is on record as “inhibited the expression of UACA”; in the assay with UACA (p53 null MEFs, CQ 25 μM), “not p53 null MEFs”. The UACA downregulation entry in the assay on UACA (cancer cells) is “failed to downregulate UACA”. Moreover, the “expression of UACA and NF-κB-regulated genes cIAP1 and XIAP” value in the assay with UACA (p53-dependent, wild type vs p53-/- MEFs, CQ 25 μM) is “inhibited the expression of UACA and NF-κB-regulated genes cIAP1 and XIAP”. For the same molecule, in the assay with Par-4 [9], the “Par-4 RNA level” value is “did not induce Par-4 at the RNA level”. Further, in the assay on Par-4 [10] (Rab8b-null MEF cells (not Rab8a-null MEF cells)), the “induction of Par-4 secretion” value is listed as “failed to show induction of Par-4 secretion”. The Rab8b induction result with Rab8b (cancer cells) is “not in cancer cells”; in the assay with Rab8b (normal human cells), “induced Rab8b in normal human cells”. In addition, the Rab8b protein levels result with Rab8b (p53 wild type cells) was “enhanced Rab8b protein levels”. For the same molecule, in the assay on Rab8b (quantitative real-time PCR), the “Rab8b mRNA” value was “induced Rab8b mRNA in a p53-dependent manner”. The Rab8a expression entry with Rab8b (wild type MEFs) was “not Rab8a expression”. Also, in the assay with Rab8b (wild type MEFs), the Rab8b expression entry is listed as “induced Rab8b expression”. The “co-localization of Par-4 with Rab8b containing vesicles” value in the assay with Par-4 [11] (relative to vehicle) was “increase in the co-localization”. Also, the “p53-responsive genes p21 and PIG3” value in the assay on p53 [12] (MEFs and normal mouse lung tissues) was “upregulation of p53-responsive genes p21 and PIG3”. In the assay on p53 [12] (cancer cells), the p53 induction entry is “neither induced p53”. Besides, in the assay on p53 [13], the p53-dependent transcription result is reported as “increased p53-dependent transcription”. Besides, the “inhibition of growth and proliferation, radiation plus CQ” value in the assay on A549 lung cancer cells is recorded as “greater than additive effect”. Further, in assay [14], the “inhibition of growth and proliferation, CQ plus ionizing radiation” value is “greater than additive effect”.
For the molecule `COc1cc(/C=C/C(=O)CC(=O)/C=C/c2ccc(O)c(OC)c2)ccc1O` [curcumin], the Par-4 secretion entry in the assay with Par-4 [15] (curcumin alone 5 μM and 10 μM) is “enhances Par-4 secretion”.
With `CC(C)Cc1ccc(C(C)C(=O)O)cc1` (stereo not drawn) [ibuprofen], the “secretion of Par-4 compared with chloroquine alone” value in the assay with Par-4 [15] (ibuprofen 750 μM with chloroquine 25 μM) is “significantly improves the secretion of Par-4”. In addition, the “production or secretion of Par-4” value in the assay on Par-4 [15] (ibuprofen alone 500 μM or 750 μM) is given as “does not enhance the production or secretion of Par-4”.
On to `COc1ccc(C2=N[C@@H](c3ccc(Cl)cc3)[C@@H](c3ccc(Cl)cc3)N2C(=O)N2CCNC(=O)C2)c(OC(C)C)c1` [Nutlin-3a], for which the Par-4 secretion result in the assay on Par-4 [1] is “induced Par-4 secretion in a p53-dependent manner”. The “secretion … in mice” value in the assay on Par-4 [2] was “can increase secretion of Par-4”.
Turning to `C[C@H]1CCC/C=C/[C@@H]2C[C@H](O)C[C@H]2[C@H](O)/C=C/C(=O)O1` [BFA], the “entry of Par-4 into Rab8b vesicles” value in the assay on Par-4 [11] (CQ-treated cells plus BFA) was “prevented Par-4 from entering the Rab8b vesicles”. Further, the “effect on CQ-induced Par-4 expression” value with Par-4 [16] is listed as “CQ-induced Par-4 expression was inhibited”.
Regarding `O=C(Nc1cc(Cl)cc2c1[nH]c1cnccc12)c1cccnc1` [PS-1145], in the assay with cancer cells [8] (A549 cells pretreated with PS-1145 10 μM, 24 h), the “apoptosis of A549 cells by CM from CQ-treated MEFs” value is recorded as “sensitized to apoptosis”. Moreover, the “secretion … in mice” value in the assay on Par-4 [2] is recorded as “can increase secretion of Par-4”.
